How the values were obtained:
LTB4 receptors = target: T1, LTB4 receptors (Homo sapiens, UniProt Q15722); assay: Study of binding to LTB4 (Leukotriene B4) receptors on human PMN, displacement of [^3 H]LTB4; details: for IC50: human PMN (10^6 cells), 1 nM [^3 H]LTB4, 20 min at 4° C., read-out: 50% inhibition (IC50) of the binding of [^3 H]LTB4
T1 construct: Human PMN are isolated from heparinized venous blood of healthy donors; endogenous in cells; host or cells: human polymorphonuclear leukocytes (PMN) from venous blood of healthy donors
Procedure: Human PMN are isolated from heparinized venous blood of healthy donors by sedimentation on dextran T500. The supernatant is centrifuged on Ficoll Paque®, and the residual erythrocytes are removed by hypotonic lysis. The PMN are washed with Hank's isotonic saline solution (HBSS) free from Ca^2+ and Mg^2+.
[…] is verified by the trypan blue exclusion technique.
Study of binding to LTB4 receptors
Binding to PMN is carried out in HBSS free from Ca^2+ and Mg^2+ containing 5 mM HEPES buffer.
The PMN (10^6 cells) are incubated for 20 min at 4° C. with 1 nM [^3 H]LTB4 in the presence or absence of non-radioactive LTB4 or of the compounds of the invention at various concentrations.

human PMN = assay: Inhibition of LTB4-induced chemotaxis of human PMN in vitro (BOYDEN-KELLER chambers); type: cell-based
Procedure: STUDY OF THE ACTIVITY OF THE COMPOUNDS OF THE INVENTION WITH RESPECT TO THE CHEMOTAXIS OF HUMAN PMN IN VITRO
PMN incubated in HBSS without Ca^2+ or Mg^2+ are labeled with ^51 chromium (1 μL Ci/10^6 cells) for 1 hour at 37° C. and then washed twice with HBSS.
The PMN are then resuspended at a concentration of 10^7 cells/cm^3 in Hank's buffer with the addition of 1% bovine albumin. LTB4 and the compounds of the invention dissolved in Hank buffer are introduced into the lower part of BOYDEN-KELLER chambers, two cellulose nitrate filters (Millipore, 3 μm) are placed on each well and the upper part of the chambers is filled with the cell suspension (Methods Enzymol 1988, vol. 162, pp 59-64).
The chambers are incubated for 150 min at 37° C. under an atmosphere of 95% humidified air and 5% CO2.
The radioactivity of the lower filter is measured with a scintillation spectrometer (Beckman LS 3801).

[1] = system: LTB4-induced contraction of parenchymatous strips of guinea pig lung; assay: LTB4-induced contraction of isolated parenchymatous lung strips; parameters: species or system DUNKIN HARTLEY guinea pig; details: contraction stimulated with 30 nM LTB4, compound added 2 min before; read-out: 50% inhibition of the contraction (IC50)
Procedure: STUDY OF THE ACTIVITY OF THE COMPOUNDS OF THE INVENTION WITH RESPECT TO THE CONTRACTION OF PARENCHYMATOUS LUNG STRIPS
LTB4 has a contracting effect on isolated parenchymatous strips of guinea pig lung. The antagonist activity of the compounds of the invention with respect to this LTB4 -induced contraction is tested.
Parenchymatous strips of DUNKIN HARTLEY guinea pig lung are cut and placed in baths containing Tyrode's solution oxygenated with a stream of gas (95% O2 /5% CO2). The strips are connected to a polygraph (GOULD Statham) with an isometric tension of 400 mg. After 1 h of equilibrium, 1 μM mepyramine and 10 μM atroprine are added to the Tyrode's solution, and the compounds of the invention are tested for their antagonist activities. The contractile responses are recorded over 5 min. The antagonist activities of the compounds of the invention are tested by adding these compounds to the bath 2 min before stimulation of contraction with 30 nM LTB4.

[2] = system: swelling of the ear of a mouse; assay: Topical inflammatory model (psoriasis), arachidonic acid ear swelling; type: in vivo; details: dose of 20 mg/ear, arachidonic acid 2 mg, 60 min
Procedure: STUDY OF THE ACTIVITY OF THE COMPOUNDS OF THE INVENTION WITH RESPECT TO A TOPICAL INFLAMMATORY MODEL (psoriasis)
The present test enables the anti-inflammatory activity of the compounds of the invention with respect to such dermal lesions to be tested.
(Current Test Protocols-Pharmacology Service-Panlabs-June 92).
Arachidonic acid (2 mg in 20 μl of an acetone/pyridine/water (7:2:1) mixture) is applied topically to the anterior and posterior surfaces of the right ear of a mouse 30 min after a similar application of the test compound or of the vehicle (20 μl). The swelling of the ear is measured by a Dyer type gauge after 60 min as an index of the inflammation.
The percentage inhibition is calculated according to the formula: Ic-lt/Ic×100, in which Ic and It represent the increase in thickness (in mm) of the ear in the control mouse and in the treated mouse, respectively.

[3] = Solubility of the salt in water; type: physicochemical; details: sodium salt
[4] = Stability of the solution of the salt; type: physicochemical; details: sodium salt, aqueous solution

T1 sequence (Q15722 whole entry): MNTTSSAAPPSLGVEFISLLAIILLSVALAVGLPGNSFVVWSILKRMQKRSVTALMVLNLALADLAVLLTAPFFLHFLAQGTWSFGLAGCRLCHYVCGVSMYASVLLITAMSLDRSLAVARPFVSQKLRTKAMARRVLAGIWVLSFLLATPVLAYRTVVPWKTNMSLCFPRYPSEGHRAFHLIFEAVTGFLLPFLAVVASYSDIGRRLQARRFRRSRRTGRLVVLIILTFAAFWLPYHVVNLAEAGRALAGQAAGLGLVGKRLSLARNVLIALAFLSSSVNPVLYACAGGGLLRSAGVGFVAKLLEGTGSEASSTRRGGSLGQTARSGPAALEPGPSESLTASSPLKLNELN

## O=C(O)C[C@]1(O)CCC[C@H](/C=C/C(O)CCCCc2ccccc2)C1 (relative stereo) [Example 7, (1S*,3S*)-1-HYDROXY-3-[(3R*S*,E)-3-HYDROXY-7-PHENYL-1-HEPTEN-1-YL]-1-CYCLOHEXANE-ACETIC ACID]
LTB4 receptors
  IC50: 200 nM
Human PMN; up to a concentration of 50 μM
  inhibition of the action of LTB4 on cell migration (in words): total inhibition
[1]
  IC50: 40 nM
[2]
  decrease in the volume of the ear: 30%

## O=C(O)C[C@]1(O)CCC[C@H](/C=C/C(O)CCCCc2ccccc2)C1 (relative stereo) [Sodium (1S*,3S*)-1-hydroxy-3-[(3R*S*,E)-3-hydroxy-7-phenyl-1-hepten-1-yl]-1-cyclohexaneacetate]
[3]
  solubility: 100 mg/mL
[4]
  Stability of the solution: more than 18 months

## CN(C)C(=O)C[C@]1(O)CCC[C@H](/C=C/C(O)CCCCc2ccccc2)C1 (single isomer, unassigned) [Example 69, (1S*,3S*)-1-HYDROXY-3-[(3R*S*,E)-3-HYDROXY-7-PHENYL-1-HEPTEN-1-YL]CYCLOHEXANE-1-(N,N-DIMETHYLACETAMIDE)]
LTB4 receptors
  IC50: 500 nM

## CN(C)C(=O)C[C@@]1(O)CCC[C@H](/C=C/C(O)CCCCc2ccccc2)C1 (single isomer, unassigned) [Example 71, (1R*,3S*,E)-1-HYDROXY-3-[(3R*S*,E)-3-HYDROXY-7-PHENYL-1-HEPTEN-1-YL]CYCLOHEXANE-1-(N,N-DIMETHYLACETAMIDE)]
LTB4 receptors
  IC50: 2000 nM

## CCCCC/C=C\C[C@@H](O)/C=C/C=C/C=C\[C@@H](O)CCCC(=O)O [LTB4, Leukotriene B4, reference compound]
LTB4 receptors; human PMN, [^3 H]LTB4 (1 nM), increasing doses of unlabeled LTB4
  displacement of [^3 H]LTB4 from its specific binding sites (in words): dose-dependent displacement
Human PMN; LTB4 0.1 to 100 nM, BOYDEN-KELLER chambers
  effect on the spontaneous migration of human PMN (in words): causes an activation of the spontaneous migration

Source: US5639902A, “(Cyclohexyl)alkene compounds” (Adir et Compagnie, priority 1993, dated 1997)
